The text below walks through data of patent publication US8946282B2, “Indolin-2-one derivatives as protein kinase inhibitors” (Annji Pharmaceutical Co., Ltd., priority 2012, dated 2015).

Data set [1] concerns the target aurora B (Homo sapiens, UniProt Q96GD4). As to the kind of experiment: radioisotope-based P81 filter-binding assay, aurora B kinase. Format: biochemical. The conditions noted are these: for IC50: read-out: Enzyme assay IC50 Aur B. The method, then: (§1) Compounds of formula (I)-(IV) were evaluated for abilities in inhibiting protein kinases aurora B and FLT-3 activity using radioisotope-based P81 filter-binding assay (Table 1).

Data set [2] addresses T1, FLT-3 (Homo sapiens, UniProt P36888).
T1 sequence (P36888 27-993): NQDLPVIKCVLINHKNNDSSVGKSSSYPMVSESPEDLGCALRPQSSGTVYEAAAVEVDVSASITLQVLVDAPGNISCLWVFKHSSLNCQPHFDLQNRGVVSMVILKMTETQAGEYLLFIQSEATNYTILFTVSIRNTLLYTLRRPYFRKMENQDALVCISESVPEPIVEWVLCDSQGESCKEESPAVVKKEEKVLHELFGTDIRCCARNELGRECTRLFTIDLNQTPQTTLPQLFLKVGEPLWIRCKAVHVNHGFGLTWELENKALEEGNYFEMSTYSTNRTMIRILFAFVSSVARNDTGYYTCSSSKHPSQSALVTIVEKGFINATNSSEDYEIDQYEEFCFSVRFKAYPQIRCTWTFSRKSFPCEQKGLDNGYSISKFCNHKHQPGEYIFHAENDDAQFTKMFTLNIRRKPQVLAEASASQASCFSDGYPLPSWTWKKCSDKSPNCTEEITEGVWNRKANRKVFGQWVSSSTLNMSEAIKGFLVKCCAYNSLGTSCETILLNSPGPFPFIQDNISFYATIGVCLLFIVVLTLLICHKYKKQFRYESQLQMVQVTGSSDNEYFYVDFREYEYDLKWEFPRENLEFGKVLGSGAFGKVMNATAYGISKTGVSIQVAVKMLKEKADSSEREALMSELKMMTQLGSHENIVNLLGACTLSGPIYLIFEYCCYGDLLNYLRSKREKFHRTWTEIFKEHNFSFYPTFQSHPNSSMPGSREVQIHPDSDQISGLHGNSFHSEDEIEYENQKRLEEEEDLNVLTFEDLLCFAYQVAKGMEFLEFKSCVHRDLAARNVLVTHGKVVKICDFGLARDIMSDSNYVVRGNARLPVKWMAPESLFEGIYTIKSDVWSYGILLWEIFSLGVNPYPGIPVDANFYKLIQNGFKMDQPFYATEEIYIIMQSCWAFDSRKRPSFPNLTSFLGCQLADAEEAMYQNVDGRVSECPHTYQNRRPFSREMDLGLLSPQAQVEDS
As to the kind of experiment: radioisotope-based P81 filter-binding assay, FLT-3 kinase. The conditions noted are these: averaged from two independent dose-response curves; read-out: Enzyme assay IC50 FLT-3. Format: biochemical. The method, then: as §1

[3] abbreviates: averaged from two independent dose-response curves.

Each structure is given as a SMILES string. Like-named read-outs stand apart in the source and are kept apart here.

aurora B, sequence (Q96GD4 whole entry): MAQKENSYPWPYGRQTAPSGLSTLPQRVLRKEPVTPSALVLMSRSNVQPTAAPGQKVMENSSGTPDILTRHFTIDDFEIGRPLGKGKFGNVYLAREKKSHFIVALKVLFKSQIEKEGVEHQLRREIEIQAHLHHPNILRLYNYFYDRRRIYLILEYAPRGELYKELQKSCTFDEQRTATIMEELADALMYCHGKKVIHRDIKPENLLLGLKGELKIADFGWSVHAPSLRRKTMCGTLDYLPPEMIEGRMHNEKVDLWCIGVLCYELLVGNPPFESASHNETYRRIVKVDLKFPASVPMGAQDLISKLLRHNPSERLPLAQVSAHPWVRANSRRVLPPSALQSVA

By IC50 is commonly meant the midpoint of a concentration-inhibition curve. A word on the melting point: it is the temperature, or range, at which the solid turns liquid. Consider `COc1ccc(-c2c[nH]cc(C(=O)Nc3ccc4c(c3)NC(=O)/C4=C\c3[nH]c(C)c(C(=O)N4CCN(C)CC4)c3C)c2=O)cc1` [D154], for which the melting point was 235 °C (dec.). Also, in data set [1] (setting [3]), the IC50 worked out at 135 nM. In addition, the IC50 in data set [2] was 1.2 nM.
As for `O=C(NC(=O)c1ccccc1F)Nc1ccc2c(c1)NC(=O)/C2=C\c1ccc[nH]1` [D52, (Z)—N-(3-((1H-pyrrol-2-yl)methylene)-2-oxoindolin-6-ylcarbamoyl)-2-fluorobenzamide], the melting point was 276 to 281 °C (dec.). In addition, the IC50 in data set [1] (setting [3]) came to 6.5 nM. For the same molecule, the IC50 in data set [2] is over 1000 nM.
The corresponding values for `COc1cc(F)c(C(=O)NC(=O)Nc2cc3c(cc2F)/C(=C/c2[nH]c(C)c(C(=O)O)c2C)C(=O)N3)c(F)c1` [D61] are over 300 °C, 2.1 nM and 380 nM.
What is called inhibition is how much of the control response was suppressed. `COc1ccc(C(=O)NC(=O)Nc2cccc3c2/C(=C/c2ccc[nH]2)C(=O)N3)cc1` [D13, (Z)—N-(3-((1H-pyrrol-2-yl)methylene)-2-oxoindolin-4-ylcarbamoyl)-4-methoxybenzamide]: the inhibition at 1 µM in data set [1] (compound at 1.0 μM, mean values (n=2), read-out: percent inhibition of enzyme catalytic activity, Aur B (numbers in parentheses)) was 11.2%. The IC50 in data set [2] stood at 58.2 nM.
Molecule `O=C1Nc2cc(NC(=O)N3CCN(c4ccc(F)cc4)C3=O)ccc2/C1=C/c1ccc[nH]1` [D89, (Z)—N-(3-((1H-pyrrol-2-yl)methylene)-2-oxoindolin-6-yl)-3-(4-fluorophenyl)-2-oxoimidazolidine-1-carboxamide] came in with a melting point of over 300 °C. Further, in data set [1] (setting [3]), the IC50 came to 37.9 nM. In data set [2], the IC50 stood at 74.1 nM.
The corresponding values for `O=C1Nc2cc(NC(=O)N3CCN(c4ccccc4)C3=O)ccc2/C1=C/c1ccc[nH]1` [D83, (Z)—N-(3-((1H-pyrrol-2-yl)methylene)-2-oxoindolin-6-yl)-2-oxo-3-phenylimidazolidine-1-carboxamide] are 294 to 299 °C (dec.), 17.3 nM and 359 nM.
Take `COc1ccc(C(=O)NC(=O)Nc2ccc3c(c2)NC(=O)/C3=C\c2[nH]c(C)c(CCC(=O)O)c2C)cc1` [D47, (Z)-3-(5-((6-(3-(4-methoxybenzoyl)ureido)-2-oxoindolin-3-ylidene)methyl)-2,4-dimethyl-1H-pyrrol-3-yl)propanoic acid]: the figures for the IC50 in data set [1] (setting [3]) and in data set [2] were 1.2 nM and 2.7 nM, respectively.
As for `Cc1[nH]c(/C=C2\C(=O)Nc3cc(NC(=O)c4c[nH]cc(-c5ccc(F)cc5)c4=O)ccc32)c(C)c1C(=O)N1CCOCC1` [D152, (Z)—N-(3-((3,5-dimethyl-4-(morpholine-4-carbonyl)-1H-pyrrol-2-yl)methylene)-2-oxoindolin-6-yl)-5-(4-fluorophenyl)-4-oxo-1,4-dihydropyridine-3-carboxamide], the figures for the IC50 in data set [1] (setting [3]) and in data set [2] were 2.9 nM and 753 nM, respectively.
For the molecule `COc1ccc(C(=O)NC(=O)Nc2ccc3c(c2)NC(=O)/C3=C\c2[nH]c(C)c(CCC(=O)N3CCN(C)CC3)c2C)c(F)c1` [D65, (Z)—N-(3-((3,5-dimethyl-4-(3-(4-methylpiperazin-1-yl)-3-oxopropyl)-1H-pyrrol-2-yl)methylene)-2-oxoindolin-6-ylcarbomoyl)-2-fluoro-4-methoxybenzamide], the melting point is 229 to 234 °C (dec.). The IC50 in data set [1] (setting [3]) is 18.4 nM. Besides, in data set [2], the IC50 is 41.4 nM.
The corresponding values for `COc1ccc(C(=O)NC(=O)Nc2ccc3c(c2)NC(=O)/C3=C\c2[nH]c(C)c(CCC(=O)N3CCOCC3)c2C)c(F)c1` [D67] are 248 to 253 °C (dec.), 16.4 nM and 106 nM.
Regarding `O=C1Nc2cccc(NC(=O)c3cccn(-c4ccc(F)cc4)c3=O)c2/C1=C/c1ccc[nH]1` [D103, (Z)—N-(3-((1H-pyrrol-2-yl)methylene)-2-oxoindolin-4-yl)-1-(4-fluorophenyl)-2-oxo-1,2-dihydropyridine-3-carboxamide], the melting point is over 300 °C. Further, the IC50 in data set [1] (setting [3]) was over 1000 nM. Also, the IC50 in data set [2] is over 1000 nM.
As for `Cc1[nH]c(/C=C2\C(=O)Nc3cc(NC(=O)c4c[nH]cc(-c5ccc(F)cc5F)c4=O)ccc32)c(C)c1CCC(=O)O` [D147, (Z)-3-(5-((6-(5-(2,4-difluorophenyl)-4-oxo-1,4-dihydropyridine-3-carboxamido)-2-oxoindolin-3-ylidene)methyl)-2,4-dimethyl-1H-pyrrol-3-yl)propanoic acid], the IC50 in data set [1] (setting [3]) was 6.2 nM; in data set [2], 2.9 nM.
The corresponding values for `COc1ccc(N2CCN(C(=O)Nc3ccc4c(c3)NC(=O)/C4=C\c3ccc[nH]3)C2=O)c(F)c1` [D94, (Z)—N-(3-((1H-pyrrol-2-yl)methylene)-2-oxoindolin-6-yl)-3-(2-fluoro-4-methoxyphenyl)-2-oxoimidazolidine-1-carboxamide] are 4.4 nM and over 10000 nM.
As for `Cc1[nH]c(/C=C2\C(=O)Nc3cc(NC(=O)NC(=O)c4ccc(Cl)c(C(F)(F)F)c4)ccc32)c(C)c1CCC(=O)O` (hydrate or solvate) [D37, (Z)-3-(5-((6-(3-(4-chloro-3-(trifluoromethyl)benzoyl)ureido)-2-oxo-indolin-3-ylidene)methyl)-2,4-dimethyl-1H-pyrrol-3-yl)propanoic acid], the melting point was 270 to 275 °C (dec.).
As to `COc1ccc(C(=O)NC(=O)Nc2cc3c(cc2F)/C(=C/c2[nH]c(C)c(C(=O)O)c2C)C(=O)N3)cc1` [D49], the figures for the IC50 in data set [1] (setting [3]) and in data set [2] were 1.5 nM and 909 nM, respectively.
The corresponding values for `COc1ccc(C(=O)NC(=O)Nc2cc3c(cc2F)/C(=C/c2[nH]c(C)c(C(=O)O)c2C)C(=O)N3)c(F)c1` [D59, (Z)-5-((5-fluoro-6-(3-(2-fluoro-4-methoxybenzoyl)ureido)-2-oxoindolin-3-ylidene)methyl)-2,4-dimethyl-1H-pyrrole-3-carboxylic acid] are 3 nM and 406 nM.
Turning to `COc1ccc(NC(=O)CC(=O)Nc2ccc3c(c2)NC(=O)/C3=C\c2ccc[nH]2)cc1` [D76, (Z)—N^1-(3-((1H-pyrrol-2-yl)methylene)-2-oxoindolin-6-yl)-N^3-(4-methoxyphenyl)malonamide], the IC50 in data set [1] (setting [3]) was determined as 29.6 nM.
As for `Cc1[nH]c(/C=C2\C(=O)Nc3cc(NC(=O)c4c[nH]cc(-c5ccc(F)cc5)c4=O)ccc32)c(C)c1CC(=O)N1CCOCC1` [D153, (Z)—N-(3-((3,5-dimethyl-4-(2-morpholino-2-oxoethyl)-1H-pyrrol-2-yl)methylene)-2-oxoindolin-6-yl)-5-(4-fluorophenyl)-4-oxo-1,4-dihydropyridine-3-carboxamide], the IC50 in data set [1] (setting [3]) came to 73.9 nM; in data set [2] it was 2.7 nM.
Turning to `O=C1Nc2cc(NC(=O)N3CCN(c4ccccc4F)C3=O)ccc2/C1=C/c1ccc[nH]1` [D90, (Z)—N-(3-((1H-pyrrol-2-yl)methylene)-2-oxoindolin-6-yl)-3-(2-fluorophenyl)-2-oxoimidazolidine-1-carboxamide], the values for the IC50 in data set [1] (setting [3]) and in data set [2] were 1.8 nM and over 10000 nM, respectively.
The corresponding values for `COc1ccc(C(=O)NC(=O)Nc2ccc3c(c2)NC(=O)/C3=C\c2[nH]c(C)c(CCC(=O)O)c2C)c(F)c1` [D58, (Z)-3-(5-((6-(3-(2-fluoro-4-methoxybenzoyl)uriedo)-2-oxoindolin-3-ylidene)methyl)-2,4-dimethyl-1H-pyrrol-3-yl)propanoic acid] are 1.3 nM and 10 nM.
Turning to `COc1ccc(C(=O)NC(=O)Nc2cc3c(cc2F)/C(=C/c2[nH]c(C)c(CCC(=O)O)c2C)C(=O)N3)cc1` [D51, (Z)-3-(5-((5-fluoro-6-(3-(4-methoxybenzoyl)ureido)-2-oxoindolin-3-ylidene)-methyl)-2,4-dimethyl-1H-pyrrol-3-yl)propanoic acid], in data set [1], the IC50 is 3 nM.
As to `Cc1[nH]c(/C=C2\C(=O)Nc3cc(NC(=O)N4CCN(C5CC5)C4=O)ccc32)c(C)c1CCC(=O)O` [D98, (Z)-3-(5-((6-(3-cyclopropyl-2-oxoimidazolidine-1-carboxamido)-2-oxoindolin-3-ylidene)methyl)-2,4-dimethyl-1H-pyrrol-3-yl)propanoic acid], the IC50 in data set [1] (setting [3]) turned out to be 3.2 nM; in data set [2] it was 119 nM.
The corresponding values for `CCOC(=O)CCc1c(C)[nH]c(/C=C2\C(=O)Nc3cc(NC(=O)NC(=O)c4ccc(OC)cc4F)ccc32)c1C` [D63, (Z)-ethyl-3-(5-((6-(3-(2-fluoro-4-methoxybenzoyl)ureido)-2-oxoindolin-3-ylidene)methyl)-2,4-dimethyl-1H-pyrrol-3-yl)propanoate] are 218 nM and 3840 nM.
